Measurements reported in patent US20220168430A1, “THERAPEUTIC METHODS FOR TREATING HEPATITIS B” (priority 2019, published 2022).
Where “and” joins values, the source holds several entries; their conditions need not be identical. Equal values may be shown once. Read-outs that look alike come from different tables or passages of the source.

Experiments:
[1] = system: HBsAg; assay: HBsAg in culture supernatants of HBV-infected PHH by ELISA (Examples 15-17); settings: for AVERAGE % INHIBITION: HBsAg
Description: All the test articles were further diluted 100 times with the culture medium. The final concentration of DMSO in the culture medium was 2%.
HBsAg in the culture supernatants harvested on days 8 was measured using the HBsAg/ELISA kit (Autobio) according to the manual. The samples were diluted 4-fold with PBS to get the signal in the range of the standard curve. Percent inhibition of HBsAg was calculated with the following formula:
% Inh. HBsAg=[1−HBsAg quantity of sample/HBV quantity of DMSO control]×100

[2] = system: HBV DNA; assay: HBV DNA in culture supernatants of HBV-infected PHH by qPCR (Examples 15-17); assay type: cell-based, HBV genotype D; primary human hepatocytes; settings: Hepatitis B virus, determined in an earlier separate experiment
[3] = system: HBV DNA; assay: as above; assay type: cell-based, HBV genotype D; primary human hepatocytes
Description: The day PHH seeding date was defined as day 0.
The PHH were infected with 400 HBV GE/cell of D type HBV on day 1.
The test articles were further diluted with the culture medium to the final test concentrations.
All the test articles were further diluted 100 times with the culture medium. The final concentration of DMSO in the culture medium was […].
Four two-way combinations were performed on a 5×5 matrix, in triplicate plates. Transfection reagent was present in all wells.
DNA in the culture supernatants harvested on days 8 was isolated with QIAamp 96 DNA Blood Kit (Qiagen-51162). For each sample, 100 μl of each culture supernatant was used to extract DNA. The DNA was eluted with 180 μl of AE. HBV DNA in the culture supernatants was quantified by quatitative PCR using well-established and commonly used procedures. Percent inhibition of HBV DNA was calculated with the formula below:
% Inh. HBV DNA=[1−value of sample/AVG. value of Medium control]×100.
Results of double combination studies were analyzed using MacSynergy II software (Prichard and Shipman, 1992).

[4] = system: HBV rcDNA; assay: Dual agent combination in HepDE19 cells, rcDNA by Quantigene 2.0 bDNA assay (Examples 5-8); assay type: cell-based, HBV; HepDE19 (HepG2 human hepatocarcinoma derived); settings: for ADDITIVE INHIBITION: Expt 3; for inhibition at 0.002 µM: TAF 0.002 μM alone; for inhibition at 0.007 µM: TAF 0.007 μM alone; for inhibition at 0.02 µM: TAF 0.020 μM alone; for inhibition at 0.06 µM: TAF 0.060 μM alone; for inhibition at 0.005 µM: TAF 0.005 μM alone; for inhibition at 0.01 µM: TAF 0.010 μM alone; for inhibition at 0.04 µM: TAF 0.040 μM alone; for inhibition at 0.08 µM: TAF 0.080 μM alone; for inhibition at 0.16 µM: TAF 0.160 μM alone; for inhibition at 0.32 µM: TAF 0.320 μM alone
Description: In vitro dual agent combination studies were conducted using the method of Prichard and Shipman 1990 (Prichard M N, Shipman C, Jr. 1990. Antiviral Res 14:181-205). The HepDE19 cell culture system is a HepG2 (human hepatocarcinoma) derived cell line that supports HBV DNA replication and cccDNA formation under control the control of a CMV Tet-off promoter system (Guo et al. 2007. J Virol 81:12472-84). HepDE19 (50,000 cells/well) were plated in 96 well collagen-coated tissue-culture treated microtiter plates in DMEM/F12 medium supplemented with 10% fetal bovine serum+1% penicillin-streptomycin with tetracycline (1 μg/mL) and incubated in a humidified incubator at 37° C. and 5% CO2 overnight. Next day, the cells were switched to fresh medium without tetracycline and incubated for 4 hrs at 37° C. and 5% CO2. The cells were switched to fresh medium and treated with inhibitor A and inhibitor B, at concentration range spanning their respective EC50 values. […] The two inhibitors were tested both singly as well as in combinations in a checkerboard fashion such that each concentration of inhibitor A was combined with each concentration of inhibitor B to determine their combination effects on inhibition of rcDNA production. There were four replicates of each concentration combination in each experiment. The plates were incubated for 7 days in a humidified incubator at 37° C. and 5% CO2. The level of rcDNA present in the wells was measured using a Quantigene 2.0 bDNA assay kit (Affymetrix, Santa Clara, Calif.) with HBV specific custom probe set (genotype D ayw) and according to the manufacturer's instructions and read using a luminescence plate reader and the relative luminescence units (RLU) data generated from each well was calculated as % inhibition of the untreated control wells and analyzed using the MacSynergy II program to determine whether the combinations were synergistic, additive or antagonistic using the interpretive guidelines established by Prichard and Shipman (Prichard M N, Shipman C, Jr. 1990. […] Each experiment was repeated at least three times and the averages and standard deviations of individual determinations was calculated to derive the conclusion. Concurrently, in each experiment, the effect of inhibitor combinations on cell viability was assessed using replicate plates in triplicates that were used to determine the ATP content as a measure of cell viability using the Cell-Titer Glo reagent (Promega, Madison, Wis.) as per the manufacturer's instructions.

[5] = Hepatitis B virus, HepDE19, read-out: AVERAGE % INHIBITION, Expt 1
[6] = Hepatitis B virus, HepDE19, read-out: AVERAGE % INHIBITION, Expt 2
[7] = Hepatitis B virus, HepDE19, read-out: AVERAGE % INHIBITION, Expt 3
[8] = Hepatitis B virus, HepDE19, read-out: AVERAGE % INHIBITION, Expt 4

In the case of `C=C1[C@H](CO)[C@@H](O)C[C@@H]1n1cnc2c(=O)[nH]c(N)nc21` [ETV, entecavir], the “AVERAGE % INHIBITION” value ([1]; ETV 0.00260 nM alone) is reported as 4.92% and −1.45%, the “AVERAGE % INHIBITION” value ([1]; ETV 0.02300 nM alone) is reported as 0.19% and −6.78% and the EC50 ([1]; Hepatitis B virus) is reported as greater than 0.07 nM. For the same compound, the EC50 [2] was 0.015 nM, the “SYNERGY PLOT (99.9%) Bonferroni Adj. 98% (HBV DNA)” value ([3]; Compound 1 0.00 μg/mL, ETV nM by row: r41 0.07000, r42 0.02300, r43 0.00780, r44 0.00260, r45 0.00086, r46 0.00000) was 0 and the inhibition at 860 fM ([3]; Hepatitis B virus, HBV DNA, ETV 0.00086 nM alone) was -5.71%. The inhibition at 2.6 pM ([3]; Hepatitis B virus, HBV DNA, ETV 0.00260 nM alone) was 8.16%, the inhibition at 23 pM ([3]; Hepatitis B virus, HBV DNA, ETV 0.02300 nM alone) was 62.3% and the inhibition at 70 pM ([3]; Hepatitis B virus, HBV DNA, ETV 0.07000 nM alone) was 85.7%. The inhibition at 7.8 pM ([3]; Hepatitis B virus, HBV DNA, ETV […] alone) was 24.2%, the “SYNERGY PLOT (99%) Bonferroni Adj. 55%” value [4] was 0 and the “ADDITIVE INHIBITION” value ([4]; ETV 0.0003 μM alone) was 28.28. The “ADDITIVE INHIBITION” value ([4]; ETV 0.001 μM alone) was 38.31, the “ADDITIVE INHIBITION” value ([4]; ETV 0.003 μM alone) was 62.92 and the “ADDITIVE INHIBITION” value ([4]; ETV 0.008 μM alone) was 88.06. It also gave an inhibition at 0.0003 µM ([4]; Hepatitis B virus, HepDE19, Expt 3, ETV 0.0003 μM alone) of 28.3%, an inhibition at 0.001 µM ([4]; Hepatitis B virus, HepDE19, Expt 3, ETV 0.001 μM alone, read-out: AVERAGE % INHIBITION) of 38.3% and an inhibition at 0.003 µM ([4]; Hepatitis B virus, HepDE19, Expt 3, ETV 0.003 μM alone, read-out: AVERAGE % INHIBITION) of 62.9%. For the same compound, the inhibition at 0.008 µM ([4]; Hepatitis B virus, HepDE19, Expt 3, ETV 0.008 μM alone) was 88.1% and the EC50 ([4]; Hepatitis B virus, HepDE19, combination studies with Cmpd 1, read-out: Avg. Inhibitor B EC50) was 1 nM.
`CC(C)OC(=O)[C@H](C)N[P@](=O)(CO[C@H](C)Cn1cnc2c(N)ncnc21)Oc1ccccc1` [TAF, tenofovir alafenamide] gave an inhibition at 0.002 µM [4, 5] of -55.3%, an inhibition at 0.007 µM [4, 5] of -30.2% and an inhibition at 0.02 µM [4, 5] of -1.17%. It also gave an inhibition at 0.06 µM [4, 5] of 67%, an inhibition at 0.002 µM [4, 6] of 9.84% and an inhibition at 0.007 µM [4, 6] of 24.9%. The inhibition at 0.02 µM [4, 6] was 65.5%, the inhibition at 0.06 µM [4, 6] was 89.4% and the inhibition at 0.001 µM ([4]; Hepatitis B virus, HepDE19, read-out: AVERAGE % INHIBITION, Expt 3, TAF 0.001 μM alone) was -134%. It also gave an inhibition at 0.003 µM ([4]; Hepatitis B virus, HepDE19, read-out: AVERAGE % INHIBITION, Expt 3, TAF 0.003 μM alone) of -49.2%, an inhibition at 0.005 µM [4, 7] of -42.3% and an inhibition at 0.01 µM [4, 7] of -48.4%. For the same compound, the inhibition at 0.02 µM [4, 7] was -34.3%, the inhibition at 0.04 µM [4, 7] was 37% and the inhibition at 0.08 µM [4, 7] was 57.1%. For the same compound, the inhibition at 0.16 µM [4, 7] was 88%, the inhibition at 0.32 µM [4, 7] was 94.8% and the inhibition at 0.001 µM ([4]; Hepatitis B virus, HepDE19, read-out: AVERAGE % INHIBITION, Expt 4, TAF 0.001 μM alone) was 9.66%. For the same compound, the inhibition at 0.003 µM ([4]; Hepatitis B virus, HepDE19, read-out: AVERAGE % INHIBITION, Expt 4, TAF 0.003 μM alone) was -0.11%, the inhibition at 0.005 µM [4, 8] was -1.36% and the inhibition at 0.01 µM [4, 8] was 0.94%. The inhibition at 0.02 µM [4, 8] was 36.6%, the inhibition at 0.04 µM [4, 8] was 61.8% and the inhibition at 0.08 µM [4, 8] was 57.2%. For the same compound, the inhibition at 0.16 µM [4, 8] was 83.6%, the inhibition at 0.32 µM [4, 8] was 95.9% and the EC50 ([4]; Hepatitis B virus, HepDE19, read-out: Avg. Inhibitor B EC50) was 44 nM.
